According to patent US7598417B2, “Substituted fluoroethyl ureas as alpha 2 adrenergic agents” (Allergan, Inc., priority 2007, dated 2009):
Like-named read-outs stand apart in the source and are kept apart here.

Key:
Assay type in all cases: cell-based
[1] = target: T1, alpha2C receptor (Homo sapiens, UniProt P18825); assay: Receptor Selection and Amplification Technology (RSAT) assay, alpha2C; settings: for Alpha 2C IA (intrinsic activity): ratio of maximal effect of the drug to maximal effect of standard full agonist brimonidine (UK14304)
T1 construct: expressed in transfected cells; host or cells: NIH-3T3
T1 sequence (P18825 1-462): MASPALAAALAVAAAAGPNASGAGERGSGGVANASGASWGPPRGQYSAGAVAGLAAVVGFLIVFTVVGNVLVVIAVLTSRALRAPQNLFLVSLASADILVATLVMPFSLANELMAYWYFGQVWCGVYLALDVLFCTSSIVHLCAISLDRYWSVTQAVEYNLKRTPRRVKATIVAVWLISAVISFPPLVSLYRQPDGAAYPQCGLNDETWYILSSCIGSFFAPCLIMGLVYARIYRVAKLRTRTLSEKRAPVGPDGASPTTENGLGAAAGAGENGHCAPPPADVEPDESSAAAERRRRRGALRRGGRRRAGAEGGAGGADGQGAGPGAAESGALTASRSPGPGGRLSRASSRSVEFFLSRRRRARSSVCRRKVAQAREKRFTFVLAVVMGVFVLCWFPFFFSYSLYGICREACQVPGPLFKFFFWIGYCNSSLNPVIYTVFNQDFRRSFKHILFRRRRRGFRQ
Method: (§1) Receptor Selection and Amplification Technology (RSAT) Assay
(§2) The RSAT assay measures a receptor-mediated loss of contact inhibition that results in selective proliferation of receptor-containing cells in a mixed population of confluent cells. The increase in cell number is assessed with an appropriate transfected marker gene such as β-galactosidase, the activity of which can be easily measured in a 96-well format. Receptors that activate the G protein, Gq, elicit this response. Alpha2 receptors, which normally couple to Gi, activate the RSAT response when coexpressed with a hybrid Gq protein that has a Gi receptor recognition domain, called Gq/i5.
(§3) NIH-3T3 cells are plated at a density of 2×10^6 cells in 15 cm dishes and maintained in Dulbecco's modified Eagle's medium supplemented with 10% calf serum. One day later, cells are cotransfected by calcium phosphate precipitation with mammalian expression plasmids encoding p-SV-β-galactosidase (5-10 μg), receptor (1-2 μg) and G protein (1-2 μg). 40 μg salmon sperm DNA may also be included in the transfection mixture. Fresh media is added on the following day and 1-2 days later, cells are harvested and frozen in 50 assay aliquots. Cells are thawed and 100 μl added to 100 μl aliquots of various concentrations of drugs in triplicate in 96-well dishes. Incubations continue 72-96 hr at 37° C. After washing with phosphate-buffered saline, β-galactosidase enzyme activity is determined by adding 200 μl of the chromogenic substrate (consisting of 3.5 mM o-nitrophenyl-β-D-galactopyranoside and 0.5% nonidet P-40 in phosphate buffered saline), incubating overnight at 30° C. and measuring optical density at 420 nm. The absorbance is a measure of enzyme activity, which depends on cell number and reflects a receptor-mediated cell proliferation. The efficacy or intrinsic activity is calculated as a ratio of the maximal effect of the drug to the maximal effect of a standard full agonist for each receptor subtype. Brimonidine, also called UK14304, the chemical structure of which is shown below, is used as the standard agonist for the alpha2A, alpha2B and alpha2C receptors. The EC50 is the concentration at which the drug effect is half of its maximal effect.
(§4) EC50 values are nanomolar. NA stands for “not active” at concentrations less than 10 micromolar. IA stands for “intrinsic activity.”

[2] = target: T2, alpha2A receptor (Homo sapiens, UniProt P08913); assay: Receptor Selection and Amplification Technology (RSAT) assay, alpha2A; settings: for Alpha 2A EC50: RSAT, NIH-3T3 cells cotransfected with receptor and Gq/i5, not active = not active at concentrations less than 10 micromolar
T2 construct: expressed in transfected cells; host or cells: NIH-3T3
T2 sequence (P08913 1-465): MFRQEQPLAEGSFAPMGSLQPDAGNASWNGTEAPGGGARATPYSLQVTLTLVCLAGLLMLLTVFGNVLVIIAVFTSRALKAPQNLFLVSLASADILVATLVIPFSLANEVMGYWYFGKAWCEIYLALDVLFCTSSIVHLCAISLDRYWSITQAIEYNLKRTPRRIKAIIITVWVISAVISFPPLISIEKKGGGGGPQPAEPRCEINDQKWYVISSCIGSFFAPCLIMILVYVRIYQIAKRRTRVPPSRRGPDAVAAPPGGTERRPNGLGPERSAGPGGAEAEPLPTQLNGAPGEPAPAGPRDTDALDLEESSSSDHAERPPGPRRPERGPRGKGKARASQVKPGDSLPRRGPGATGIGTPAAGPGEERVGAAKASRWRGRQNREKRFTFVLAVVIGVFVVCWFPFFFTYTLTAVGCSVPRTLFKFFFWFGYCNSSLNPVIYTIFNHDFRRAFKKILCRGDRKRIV
Method: as §1, §2, §3, §4

[3] = target: T3, alpha2B receptor (Homo sapiens, UniProt P18089); assay: Receptor Selection and Amplification Technology (RSAT) assay, alpha2B; settings: for Alpha 2B IA (intrinsic activity): ratio of maximal effect of the drug to maximal effect of standard full agonist brimonidine (UK14304)
T3 construct: expressed in transfected cells; host or cells: NIH-3T3
T3 sequence (P18089 1-450): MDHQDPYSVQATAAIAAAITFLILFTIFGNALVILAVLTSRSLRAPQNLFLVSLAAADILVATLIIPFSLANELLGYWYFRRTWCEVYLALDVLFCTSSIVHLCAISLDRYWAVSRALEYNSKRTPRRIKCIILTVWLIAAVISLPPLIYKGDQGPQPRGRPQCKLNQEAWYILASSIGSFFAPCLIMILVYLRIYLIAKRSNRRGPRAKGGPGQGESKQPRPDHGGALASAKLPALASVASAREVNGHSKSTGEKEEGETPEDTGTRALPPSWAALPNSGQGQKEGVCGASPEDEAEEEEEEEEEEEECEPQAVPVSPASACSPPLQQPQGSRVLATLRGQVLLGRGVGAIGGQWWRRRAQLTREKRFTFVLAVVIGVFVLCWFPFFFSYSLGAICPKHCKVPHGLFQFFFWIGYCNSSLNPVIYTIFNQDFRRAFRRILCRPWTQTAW
Method: as §1, §2, §3
The results of the RSAT assay with several exemplary compounds of the invention are disclosed in Table 1 above together with the chemical formulas of these exemplary compounds. EC50 values are nanomolar. NA stands for “not active” at concentrations less than 10 micromolar. IA stands for “intrinsic activity.”

[4] = RSAT, NIH-3T3 cells cotransfected with receptor and Gq/i5, not active = not active at concentrations less than 10 micromolar, read-out: Alpha 2C EC50
[5] = RSAT, NIH-3T3 cells cotransfected with receptor and Gq/i5, not active = not active at concentrations less than 10 micromolar, read-out: Alpha 2B EC50
[6] = RSAT, NIH-3T3 cells cotransfected with receptor and Gq/i5, not active = not active at concentrations less than 10 micromolar

| SMILES | EC50 [1, 4] [µM] | Alpha 2C IA (intrinsic activity) [1] | Alpha 2A EC50 [2] | EC50 [3, 5] [µM] | Alpha 2B IA (intrinsic activity) [3] | Alpha 2C EC50 [1, 6] | Alpha 2B EC50 [3, 6] | EC50 [1] [µM] | EC50 [2] [µM] | Alpha 2A IA (intrinsic activity) ([2]; ratio of maximal effect of the drug to maximal effect of standard full agonist brimonidine (UK14304)) | EC50 [3] [µM] |
| --- | --- | --- | --- | --- | --- | --- | --- | --- | --- | --- | --- |
| CC1=CC(NC(=O)NCCF)CC1 (centres unmarked) | 0.911 | 0.47 | not active | 1.16 | 0.61 | – | – | – | – | – | – |
| Cc1ccc2c(c1)C(NC(=O)NCCF)CC2 (centres unmarked) | 0.807 | 0.31 | not active | 0.032 | 0.88 | – | – | – | – | – | – |
| COc1ccc2c(c1)C(NC(=O)NCCF)CC2 (centres unmarked) | 1.46 | 0.31 | not active | 0.3 | 0.81 | – | – | – | – | – | – |
| COc1ccc2c(c1)C(NC(=O)NCCF)CCC2 (centres unmarked) | – | – | not active | 0.824 | 0.78 | not active | – | – | – | – | – |
| O=C(NCCF)NC1CCc2cc(Cl)ccc21 (centres unmarked) | – | – | not active | 0.845 | 0.31 | not active | – | – | – | – | – |
| O=C(NCCF)NC1CCc2cc(Br)ccc21 (centres unmarked) | 1.26 | 0.31 | not active | 2.62 | 0.31 | – | – | – | – | – | – |
| O=C(NCCF)NC1CCc2cc(F)ccc21 (centres unmarked) | 0.543 | 0.54 | not active | 0.088 | 0.59 | – | – | – | – | – | – |
| O=C(NCCF)NC1CCc2ccc(F)cc21 (centres unmarked) | 0.06 | 0.47 | not active | 0.02 | 0.54 | – | – | – | – | – | – |
| O=C(NCCF)N[C@H]1CCc2ccccc21 | 0.0175 | 0.47 | not active | 0.0016 | 1.0 | – | – | – | – | – | – |
| Cc1c(Cl)ccc2c1C(NC(=O)NCCF)CC2 (centres unmarked) | – | – | not active | 0.085 | 0.6 | not active | – | – | – | – | – |
| CCc1cccc2c1CCC2NC(=O)NCCF (centres unmarked) | 0.103 | 0.47 | not active | 0.0106 | 0.99 | – | – | – | – | – | – |
| O=C(NCCF)NC1CCc2ccc(F)c(F)c21 (centres unmarked) | 0.117 | 0.53 | not active | 0.0187 | 0.97 | – | – | – | – | – | – |
| Cc1c(Br)ccc2c1C(NC(=O)NCCF)CC2 (centres unmarked) | – | – | not active | 0.238 | 0.37 | not active | – | – | – | – | – |
| O=C(NCCF)NC1CCc2cccnc21 (centres unmarked) | – | – | not active | 3.08 | 0.81 | not active | – | – | – | – | – |
| CC1=CCCCC1NC(=O)NCCF (centres unmarked) | 0.453 | 0.58 | not active | 0.074 | 0.9 | – | – | – | – | – | – |
| CCC1=CCCCC1NC(=O)NCCF (centres unmarked) | – | 0.59 | – | – | 1.22 | – | – | 0.348 | 0.184 | 0.64 | 0.045 |
| CC1=C(C)C(NC(=O)NCCF)CCC1 (centres unmarked) | 0.513 | 0.52 | not active | 0.0197 | 0.76 | – | – | – | – | – | – |
| CC1=CC(NC(=O)NCCF)CCC1 (centres unmarked) | 0.52 | 0.4 | not active | 0.225 | 0.42 | – | – | – | – | – | – |
| CCC1=CC(NC(=O)NCCF)CCC1 (centres unmarked) | 0.346 | 0.32 | not active | – | – | – | not active | – | – | – | – |

Continued, in another order:

| EC50 [1, 4] [µM] | Alpha 2C IA (intrinsic activity) [1] | Alpha 2A EC50 [2] | EC50 [3, 5] [µM] | Alpha 2B IA (intrinsic activity) [3] | Alpha 2C EC50 [1, 6] | Alpha 2B EC50 [3, 6] | SMILES | EC50 [1] [µM] | EC50 [2] [µM] | Alpha 2A IA (intrinsic activity) ([2]; ratio of maximal effect of the drug to maximal effect of standard full agonist brimonidine (UK14304)) | EC50 [3] [µM] |
| --- | --- | --- | --- | --- | --- | --- | --- | --- | --- | --- | --- |
| 0.246 | 0.48 | not active | 0.018 | 0.92 | – | – | O=C(NCCF)NC1Cc2ccccc2C1 | – | – | – | – |
| – | – | not active | 0.0264 | 0.85 | not active | – | CC1Cc2ccccc2C1NC(=O)NCCF (centres unmarked) | – | – | – | – |
| – | – | not active | 0.226 | 0.63 | not active | – | O=C(NCCF)NC1CCc2ccccc2C1 (centres unmarked) | – | – | – | – |
| 1.44 | 0.35 | not active | – | – | – | not active | COc1ccc2c(c1)CCC2NC(=O)NCCF (centres unmarked) | – | – | – | – |
| 0.22 | 0.45 | not active | 0.302 | 0.52 | – | – | O=C(NCCF)NC1CCc2ccc(Br)cc21 (centres unmarked) | – | – | – | – |
| – | – | not active | 0.247 | 0.71 | not active | – | Cc1ccc2c(c1)CCC2NC(=O)NCCF (centres unmarked) | – | – | – | – |
| > 2 | 0.38 | not active | 0.38 | 0.76 | – | – | O=C(NCCF)NCC1CCc2ccccc21 (centres unmarked) | – | – | – | – |
| 0.453 | 0.44 | not active | 0.09 | 0.81 | – | – | O=C(NCCF)NC1CCCc2occc21 (centres unmarked) | – | – | – | – |
| 0.04 | 0.52 | not active | 0.0096 | 0.86 | – | – | O=C(NCCF)NC1CCCc2sccc21 (centres unmarked) | – | – | – | – |
| 0.886 | 0.37 | not active | 0.319 | 0.88 | – | – | CCC1=C(C)C(NC(=O)NCCF)CC1 (centres unmarked) | – | – | – | – |
| 2.6 | 0.4 | not active | 1.26 | 0.58 | – | – | O=C(NCCF)NC1C=C(CO)CCC1 (centres unmarked) | – | – | – | – |
| 3.62 | 0.32 | not active | 2.58 | 0.81 | – | – | CC1=C(C=O)CCCC1NC(=O)NCCF (centres unmarked) | – | – | – | – |
